Measured values from patent US20250091911A1, “NANOFILTRATION SYSTEM AND METHOD INCLUDING PRETREATMENT WITH GREEN SORPTION MEDIA” (University of Central Florida Research Foundation, Inc., priority 2023, published 2025).

Assays:
[1] = Fixed-bed column pretreatment of spiked C-23 canal water with ZIPGEM; details: for Removal via column C1: ZIPGEM column 1, 30 h; for Removal via column C2: ZIPGEM column 2, 30 h; for Removal via column C3 / average removal percentage by media: ZIPGEM; for Removal via column C3: 30 h; for average removal percentage by media: triplicate columns
Procedure: (§1) The water samples were collected from the same site of the C-23 canal during both the dry and wet seasons. However, only wet season water samples were used in the experiment. The water samples were analyzed for both long-chain (PFOA and PFOS) and short-chain (Perfluorobutanoic acid [PFBA] and Perfluorobutanesulfonic acid [PFBS]) PFAS following the modified EPA 537.1 method (Shoemaker & Tettenhorst, 2020). Through this method, an aliquot of a 250 mL water sample containing analytes and internal standards is extracted via solid phase extraction. The extracted analytes and internal standards are then eluted with methanol and ammonium hydroxide in methanol solvent. Then the eluted samples are dried with nitrogen and reconstituted to 1 mL volume with a buffer solution. The samples are then injected into a C18 liquid chromatography column, and the PFAS compounds are separated by a gradient of pure methanol and 20 mM ammonium acetate. Finally, the eluted compounds are detected, and their concentrations are measured via tandem mass spectrometry. The method detection limits (MDLs) for PFBA, PFBS, PFOA, and PFOS were 0.5 ng·L^−1, 2 ng·L^−1, 0.5 ng·L^−1, and 1 ng·L^−1, respectively. The concentration of calcium ion (Ca^2+) was analyzed at Eurofins Flowers's Chemical Laboratories (Altamonte Springs, Florida) following EPA method 6010D using inductively coupled plasma optical emission spectroscopy (MDL=0.096 mg·L^−1). Total organic carbon (TOC) and dissolved organic carbon (DOC) were measured using a TOC analyzer following EPA method 415.3.
(§2) Water samples collected from the C-23 canal were first fortified with PFOS and PFOA and then used as influents to the pretreatment column containing one of the two green sorption media. Note the water samples were not fortified with PFBA and PFBS. The green sorption media effluent served as the feedwater for the nanofiltration unit of the proposed water treatment system. The nanofiltration membrane unit without any green sorption media-based pretreatment served as the “control.” The integration of a green sorption media (CPS or ZIPGEM) with crossflow nanofiltration is herein referred to as a water treatment system, denoted as CPS-nanofiltration or ZIPGEM-nanofiltration. The CPS and ZIPGEM column influents and effluents and nanofiltration permeates were analyzed for both long-chain (PFOS and PFOA) and short-chain (PFBS and PFBA) PFAS. FIG. 3 presents the green sorption media-nanofiltration hybrid treatment scheme.
C-23 canal water was stored in a walk-in refrigerator at […] after collection. For the pretreatment experiment, a total of 60 L of water was used as influents to the CPS and ZIPGEM columns. Although the raw water was spiked with 70 ng·L^−1 of PFOA and PFOS each, the short-chain PFAS (PFBA, PFBS) were at their indigenous concentrations. A peristaltic pump was used to deliver the water to the columns at a constant flowrate of 14 ml·min^−1. Three columns (triplicate) with 3 ft length and 4-inch diameter containing 2,600 ml of media were set up for each media, and all samples were analyzed in triplicate (FIG. 4). The fixed-bed column experiments were run for more than 48 h, and effluents were taken at different time intervals to be used as feedwaters for the nanofiltration treatment that followed. […] At least 5 L of column effluent were collected to be used as the nanofiltration feed, and the stated effluent at 9 h for CPS was collected from 0 h until 9 h, whereas effluent at 30 h for ZIPGEM was collected from 9 h until 30 h. The collected effluents from the column study were stored in a refrigerator until they were used for the nanofiltration experiment. FIG. 4 illustrates the experimental setup for the pretreatment CPS and ZIPGEM process.
The average removal efficiencies of each media pretreatment were calculated based on PFAS concentrations in the influents and effluents of triplicate columns, as disclosed in TABLE 5. […]

[2] = Crossflow nanofiltration of CPS-pretreated water; details: for PFAS concentration, membrane permeates (MP): CPS-nanofiltration @ 9 h
Procedure: as §1
A commercially available nanofiltration membrane (membrane ID: XN45) was used for the crossflow nanofiltration experiment. The membranes were acquired as flat sheets and cut into coupons of required sizes (active surface area of 42 cm^2) to fit into a membrane cell (CF042).
A bench-scale crossflow filtration setup was used in these experimental methods. The experimental setup consisted of a feed tank, a centrifugal pump, three CF042 membrane cells connected to pressure gauges, check valves, and flowmeters. A recirculating chiller was used for regulating the temperature at 20° C. Three high-precision balances were used to measure the weight of the collected permeate and to calculate the flowrates. The scales were connected to a computer for data acquisition.
Before each experimental run, the membrane cells and tubing were cleaned by running DI water as feed without placing any membrane coupons inside the cells. Then the membrane coupons were mounted into the cells firmly and compacted at 100 psi for at least 4 h using DI water. After that, 5 L of the effluents from the pretreatment media (i.e., the C-23 water samples that were run through the CPS and ZIPGEM) were taken as feedwater for each nanofiltration filtration experiment. The experiments were run for 24 h before collecting permeates and feed samples for analysis. The experiments were conducted at a constant flowrate of 1.0 L·min^−1, with a corresponding cross flow velocity of 0.18 m·s^−1. The transmembrane pressure was initially set to 110 psi at the beginning of the permeate collection by regulating inlet and retentate valves. However, the pressure changed over time as feed concentration increased during the permeate collection. The experiment was run in total recirculation mode, whereby both the retentate and permeate were recycled, except the time of permeate collection.
The average removal efficiencies of each media pretreatment were calculated based on PFAS concentrations in the influents and effluents of triplicate columns, as disclosed in TABLE 5. […] The overall efficiency of the hybrid treatment was calculated by comparing the average concentrations of PFAS in the influents of the green sorption media pretreatment columns and the nanofiltration permeates, as disclosed in TABLE 6. […]

[3] = Control: nanofiltration without green sorption media pretreatment
Procedure: as §1, §2
A bench-scale crossflow filtration setup was used in these experimental methods. The experimental setup consisted of a feed tank, a centrifugal pump, three CF042 membrane cells connected to pressure gauges, check valves, and flowmeters. A recirculating chiller was used for regulating the temperature at 20° C. […]

| SMILES | Removal via column C1 [1] | Removal via column C2 [1] | Removal via column C3 [1] | average removal percentage by media [1] | PFAS concentration, membrane permeates (MP) ([2]; Col 1) | PFAS concentration, membrane permeates (MP) ([2]; Col 2) | PFAS concentration, membrane permeates (MP) ([2]; Col 3) | nanofiltration membrane removal ([2]; feed = CPS column 1 effluent) | nanofiltration membrane removal ([2]; feed = CPS column 2 effluent) | nanofiltration membrane removal ([2]; feed = CPS column 3 effluent) | % Removal by Control, O [3] |
| --- | --- | --- | --- | --- | --- | --- | --- | --- | --- | --- | --- |
| O=C(O)C(F)(F)C(F)(F)C(F)(F)F [PFBA, Perfluorobutanoic acid] | 5% | 5% | 8% | 6 | 3.20 ng/L | 4.17 ng/L | 3.60 ng/L | 47% | 28% | 33% | 67% |
| O=S(=O)(O)C(F)(F)C(F)(F)C(F)(F)C(F)(F)F [PFBS, Perfluorobutanesulfonic acid] | 6% | 5% | −1% | 3.3 | 3.27 ng/L | 3.40 ng/L | 2.67 ng/L | 26% | 15% | 35% | 44% |
| O=C(O)C(F)(F)C(F)(F)C(F)(F)C(F)(F)C(F)(F)C(F)(F)C(F)(F)F [PFOA, Perfluorooctanoic acid] | 19% | 19% | 4% | 14 | 2.27 ng/L | 5.83 ng/L | 2.43 ng/L | 40% | 58% | 78% | 82% |
| O=S(=O)(O)C(F)(F)C(F)(F)C(F)(F)C(F)(F)C(F)(F)C(F)(F)C(F)(F)C(F)(F)F [PFOS, Perfluorooctanesulfonic acid] | 100% | 100% | 100% | 100 | 2.0 ng/L | 1.90 ng/L | 0.74 ng/L | 100% | 100% | 100% | 84% |
